In patent US5066802A, “Process for preparing pyrido-benzothiazine derivatives having high antibacterial activity and high bioavailability to tissues” (Mediolanum Farmaceutici Srl., priority 1987, dated 1991) one finds MIC data, which are given here for three compounds.

≈ marks a conversion by molar mass, not a printed value. Where a name gives a salt, the structure may show the parent alone. A value given as a limit tells only on which side of the number the result lay.

Type in all cases: cell-based
One assay has as its system Staphylococcus 7. The experiment in a line: agar dilution MIC, Staphylococcus 7. As to conditions: Mueller-Hinton agar, 10^5 CFU per point, about 18 hrs, 37° C., read-out: Minimum Inhibitory Concentrations. As to the method:
(§1) The antibacterial activity of the compounds according to the present invention was evaluated against pathogenic strains of recent clinical isolation, both gram positive and gram negative. Minimum inhibitory concentration (MIC) were determined by the diluition method in agar, using a multipoint inoculator (Denley Techn. Ltd. England). As a culture medium Mueller-Hinton agar (DIFCO) in Petri capsules was used.
(§2) The bacterial inoculum, originating from an overnight broth was inoculated by a multipoint and was standardized in such a way as to obtain 10^5 colony forming units (CFU) per point.
(§3) After about 18 hrs incubation in a thermostat at 37° C., the bacterial growth was evaluated on each plate.
In general terms: In agar dilution the substance is mixed into plates at graded concentrations.

A further assay relates to Staphylococcus 29. Put plainly: agar dilution MIC, Staphylococcus 29. Conditions: Mueller-Hinton agar, 10^5 CFU per point, about 18 hrs, 37° C., read-out: Minimum Inhibitory Concentrations. As to the method:
as §1, §2, §3

The test system of the next assay is Citrobacter 120. Put plainly: agar dilution MIC, Citrobacter 120. Conditions: Mueller-Hinton agar, 10^5 CFU per point, about 18 hrs, 37° C., read-out: Minimum Inhibitory Concentrations. As to the method:
as §1, §2, §3

The subject of another assay is Pseudomonas 2437. Put plainly: agar dilution MIC, Pseudomonas 2437. Conditions: Mueller-Hinton agar, 10^5 CFU per point, about 18 hrs, 37° C., read-out: Minimum Inhibitory Concentrations. As to the method: as §1, §2, §3
In a further assay the test system is Salmonella 10. The experiment in a line: agar dilution MIC, Salmonella 10. Conditions: Mueller-Hinton agar, 10^5 CFU per point, about 18 hrs, 37° C., read-out: Minimum Inhibitory Concentrations. As to the method:
as §1, §2, §3

Another assay relates to Staphylococcus 27. Put plainly: agar dilution MIC, Staphylococcus 27. Conditions: Mueller-Hinton agar, 10^5 CFU per point, about 18 hrs, 37° C., read-out: Minimum Inhibitory Concentrations. As to the method:
as §1, §2, §3

The next assay relates to E. coli 963. Put plainly: agar dilution MIC, E. coli 963. As to conditions: Escherichia coli, Mueller-Hinton agar, 10^5 CFU per point, about 18 hrs, 37° C., read-out: Minimum Inhibitory Concentrations. As to the method:
as §1, §2, §3

In the next assay the test system is Klebsiella 5. The experiment in a line: agar dilution MIC, Klebsiella 5. Conditions: Mueller-Hinton agar, 10^5 CFU per point, about 18 hrs, 37° C., read-out: Minimum Inhibitory Concentrations. As to the method: as §1, §2, §3
Another assay relates to Enterobacter 2653. Put plainly: agar dilution MIC, Enterobacter 2653. As to conditions: Mueller-Hinton agar, 10^5 CFU per point, about 18 hrs, 37° C., read-out: Minimum Inhibitory Concentrations. As to the method: as §1, §2, §3
The subject of the next assay is Proteus 966. Put plainly: agar dilution MIC, Proteus 966. As to conditions: Mueller-Hinton agar, 10^5 CFU per point, about 18 hrs, 37° C., read-out: Minimum Inhibitory Concentrations. As to the method: as §1, §2, §3
Another assay relates to Citrobacter 118. The experiment in a line: agar dilution MIC, Citrobacter 118. Conditions: Mueller-Hinton agar, 10^5 CFU per point, about 18 hrs, 37° C., read-out: Minimum Inhibitory Concentrations. As to the method:
as §1, §2, §3

A further assay concerns Salmonella 9. The experiment in a line: agar dilution MIC, Salmonella 9. As to conditions: Mueller-Hinton agar, 10^5 CFU per point, about 18 hrs, 37° C., read-out: Minimum Inhibitory Concentrations. As to the method:
as §1, §2, §3

For a further assay, the system named is Klebsiella 4. Put plainly: agar dilution MIC, Klebsiella 4. Conditions: Mueller-Hinton agar, 10^5 CFU per point, about 18 hrs, 37° C., read-out: Minimum Inhibitory Concentrations. As to the method: as §1, §2, §3
A further assay relates to Proteus 25. Put plainly: agar dilution MIC, Proteus 25. Conditions: Mueller-Hinton agar, 10^5 CFU per point, about 18 hrs, 37° C., read-out: Minimum Inhibitory Concentrations. As to the method: as §1, §2, §3
The next assay deals with Enterobacter 41. Put plainly: agar dilution MIC, Enterobacter 41. Conditions: Mueller-Hinton agar, 10^5 CFU per point, about 18 hrs, 37° C., read-out: Minimum Inhibitory Concentrations. As to the method: as §1, §2, §3
The subject of another assay is E. coli 15. The experiment in a line: agar dilution MIC, E. coli 15. As to conditions: Escherichia coli, Mueller-Hinton agar, 10^5 CFU per point, about 18 hrs, 37° C., read-out: Minimum Inhibitory Concentrations. As to the method:
as §1, §2, §3

For the next assay, the system named is Pseudomonas 19. Put plainly: agar dilution MIC, Pseudomonas 19. Conditions: Mueller-Hinton agar, 10^5 CFU per point, about 18 hrs, 37° C., read-out: Minimum Inhibitory Concentrations. As to the method:
as §1, §2, §3

On to `CCNCC1CCN(c2c(F)cc3c(=O)c(C(=O)O)cn4c3c2OCC4C)C1` (stereo not drawn) [E.P. 0106489 ex. 20, reference compound], for which the MIC in the assay on Staphylococcus 7 amounted to 0.25 µg/mL (≈ 0.642 µM); in the assay with Staphylococcus 29 it was 0.5 µg/mL (≈ 1.28 µM); in the assay on Citrobacter 120, 2 µg/mL (≈ 5.14 µM); in the assay on Pseudomonas 2437, 128 µg/mL (≈ 329 µM); in the assay with Salmonella 10, 1 µg/mL (≈ 2.57 µM); with Staphylococcus 27 it was 0.25 µg/mL (≈ 0.642 µM). For the same compound, the MIC turned out to be 2 µg/mL (≈ 5.14 µM) in the assay with E. coli 963; 2 µg/mL (≈ 5.14 µM) with Klebsiella 5; 0.25 µg/mL (≈ 0.642 µM) in the assay on Enterobacter 2653; 2 µg/mL (≈ 5.14 µM) in the assay with Proteus 966; 4 µg/mL (≈ 10.3 µM) with Citrobacter 118; 1 µg/mL (≈ 2.57 µM) in the assay with Salmonella 9. Further, the MIC with Klebsiella 4 turned out to be 0.5 µg/mL (≈ 1.28 µM); in the assay on Proteus 25, 1 µg/mL (≈ 2.57 µM); with Enterobacter 41, 1 µg/mL (≈ 2.57 µM); with E. coli 15 it was 0.5 µg/mL (≈ 1.28 µM); in the assay with Pseudomonas 19 it was 64 µg/mL (≈ 164 µM).
Consider `CCNCC1CCN(c2c(F)cc3c(=O)c(C(=O)O)cn4c3c2SCC4C)C1` (stereo not drawn) [ex. 1, 10-3-[(ethylamino)methyl]1-pyrrolidinyl]-9 fluoro-2,3-dihydro-3-methyl-7-oxo-7H-pyrido [1,2,3 de][1,4]benzothiazine-6-carboxylic acid hydrochloride], for which the MIC in the assay with Staphylococcus 7 was 0.12 µg/mL; with Staphylococcus 29 it was 0.25 µg/mL; with Citrobacter 120, 4 µg/mL; in the assay with Pseudomonas 2437, 64 µg/mL; in the assay with Salmonella 10, 0.5 µg/mL; in the assay with Staphylococcus 27, 0.25 µg/mL. Further, the MIC turned out to be 2 µg/mL with E. coli 963; 2 µg/mL in the assay with Klebsiella 5; 0.25 µg/mL in the assay with Enterobacter 2653; 4 µg/mL in the assay on Proteus 966; 2 µg/mL in the assay on Citrobacter 118; 0.5 µg/mL in the assay with Salmonella 9. Besides, the MIC turned out to be 0.25 µg/mL in the assay on Klebsiella 4; 4 µg/mL with Proteus 25; 0.5 µg/mL with Enterobacter 41; 0.5 µg/mL with E. coli 15; 32 µg/mL with Pseudomonas 19.
Regarding `CCNCC1CCN(c2c(F)cc3c(=O)c(C(=O)O)cn4c3c2SCC4)C1` (stereo not drawn) [ex. 2, 10-[3[(ethylamino)methyl]-1-pyrrolidinyl]-9-fluoro-2,3-dihydro-7-oxo-7H-pyr ido [1,2,3 de][1,4]benzothiazine-6-carboxylic acid hydrochloride], the MIC in the assay on Staphylococcus 7 is 1 µg/mL; in the assay with Staphylococcus 29, 2 µg/mL; in the assay on Citrobacter 120 it was 8 µg/mL; in the assay on Pseudomonas 2437, greater than 128 µg/mL; in the assay on Salmonella 10 it was 2 µg/mL; with Staphylococcus 27, 8 µg/mL. Moreover, the MIC in the assay on E. coli 963 is 8 µg/mL; in the assay on Klebsiella 5, 8 µg/mL; with Enterobacter 2653, 1 µg/mL; in the assay on Proteus 966 it was 8 µg/mL; with Citrobacter 118, 8 µg/mL; with Salmonella 9 it was 4 µg/mL. Further, the MIC worked out at 2 µg/mL with Klebsiella 4; 8 µg/mL with Proteus 25; 4 µg/mL in the assay on Enterobacter 41; 2 µg/mL with E. coli 15; 128 µg/mL in the assay on Pseudomonas 19.
